Where two headings read alike, the source gives them in different places.
Assay: PK after subcutaneous administration of solutions in rats
Assay type: in vivo, Wistar Han rat
Settings: Wistar Han, plasma, rat, SC 50 mg/kg; for AUC(0-t) / concentration at 28 d / concentration at 84 d / Cmax / concentration at 98 d / concentration at 168 d / concentration at 1 h / concentration at 3 h / concentration at 8 h / concentration at 24 h / concentration at 48 h / concentration at 72 h / concentration at 96 h / concentration at 168 h / concentration at 336 h / concentration at 504 h / concentration at 672 h / concentration at 840 h / concentration at 1008 h / concentration at 1344 h / concentration at 1680 h: sc, 50 mg/kg; for concentration at 28 d: read-out: C28d; for concentration at 84 d: read-out: C84d; for concentration at 98 d: read-out: C98d; for concentration at 1 h / concentration at 3 h / concentration at 8 h / concentration at 24 h / concentration at 48 h / concentration at 72 h / concentration at 96 h / concentration at 168 h / concentration at 336 h / concentration at 504 h / concentration at 672 h / concentration at 840 h / concentration at 1008 h / concentration at 1344 h / concentration at 1680 h: male, 300 mg/mL in 15% water/85% PEG 300
Procedure: Formulations containing the compound of Formula (Ia) were prepared as aqueous solutions or oral formulations and administered subcutaneously to rats, dogs, cynomolgus monkey, and/or rhesus monkey.
A solution of the compound of Formula (Ia) in 10% ethanol, 13% water, and 77% PEG 200 (400 mg/mL) was prepared. The solution was administered subcutaneously to dogs at a dose of 12 mg/kg and rats at a dose of 50 mg/kg and the pharmacokinetic (PK) profile was determined. […] In both species, plasma concentrations of the compound of Formula (Ia) were maintained above the target trough concentration of 20 nM (corresponding to an IQ of 5) for at least 84 days (12 weeks).
A solution of the free acid of the compound of Formula (Ia) in 15% water and 85% PEG 300 (300 mg/mL) was prepared. The solution was administered subcutaneously to male Wistar Han rats at a dose level of 50 mg/kg and dose volume of 0.167 mL/kg and the pharmacokinetic (PK) profile was determined.
A 300 mg/ml solution of a compound of Formula (Ia) having 9.8 w/w % water, 65.0 w/w % PEG 300, and 25.2 w/w % of the compound of Formula (Ia) was prepared. The solution was administered subcutaneously to rats at a dose of 50 mg/kg and to dogs at a dose of 12 mg/kg and the pharmacokinetic (PK) profile was determined. […] In the rat, plasma concentrations of the compound of Formula (Ia) were maintained above the target trough concentration of 20 nM for at least 168 days (24 weeks). In the dog, plasma concentrations of the compound of Formula (Ia) were maintained above the target trough concentration of 20 nM for at least 84 days (12 weeks).
(§1) A 150 mg/ml solution of a compound of Formula (Ia) having 27.92 w/w % water, 58.04 w/w % PEG 300, 13.47 w/w % of a compound of Formula (Ia), and 1.1 w/w % NaOH was prepared. The solution was administered subcutaneously to rats at a dose of 50 mg/kg and to dogs at a dose of 12 mg/kg and the pharmacokinetic (PK) profile was determined. […] In the rat, plasma concentrations of the compound of Formula (Ia) were maintained above the target trough concentration of 20 nM for at least 126 days (18 weeks). In the dog, plasma concentrations of the compound of Formula (Ia) were maintained above the target trough concentration of 20 nM for at least 56 days (8 weeks).
as §1, with “300” for “150”, “23.2” for “27.92”, “50.0” for “58.04”, “25.7” for “13.47”
A 50 mg/ml solution of a compound of Formula (Ia) having 30.07 w/w % water, 64.40 w/w % PEG 300, 4.68 w/w % of a sodium salt of the compound of Formula (Ia), and 0.85 w/w % poloxamer 188 was prepared. The solution was administered subcutaneously to rats at a dose of 50 mg/kg and to dogs at a dose of 6 mg/kg and the pharmacokinetic (PK) profile was determined. […] In the rat, plasma concentrations of the compound of Formula (Ia) were maintained above the target trough concentration of 20 nM for at least 28 days (4 weeks). In the dog, plasma concentrations of the compound of Formula (Ia) were maintained above the target trough concentration of 20 nM for at least 14 days (2 weeks).
A 75 mg/ml solution of a compound of Formula (Ia) having 29.21 w/w % water, 62.55 w/w % PEG 300, 6.97 w/w % of a sodium salt of the compound of Formula (Ia), and 1.68 w/w % poloxamer 188 was prepared. The solution was administered subcutaneously to rats at a dose of 50 mg/kg and to dogs at a dose of 6 mg/kg and the pharmacokinetic (PK) profile was determined. […]

[1] = 150 mg/mL solution (w/w %: 27.92 water, 58.04 PEG 300, 13.47 Formula (Ia), 1.1 NaOH), mean ± SD, n=3
[2] = 300 mg/mL solution (w/w %: 21.97 water, 47.05 PEG 300, 25.21 Formula (Ia), 1.08 NaOH, 4.69 poloxamer 188), mean ± SD, n=3
[3] = 400 mg/mL solution in 10% ethanol, 13% water, 77% PEG 200, mean ± SD, n=3

Structure (SMILES): CC(C)(C#Cc1ccc(-c2ccc(Cl)c3c(NS(C)(=O)=O)nn(CC(F)(F)F)c23)c([C@H](Cc2cc(F)cc(F)c2)NC(=O)Cn2nc(C(F)(F)F)c3c2C(F)(F)[C@@H]2C[C@H]32)n1)S(C)(=O)=O [Formula (Ia), N—((S)-1-(3-(4-chloro-3-(methylsulfonamido)-1-(2,2,2-trifluoroethyl)-1H-indazol-7-yl)-6-(3-methyl-3-(methylsulfonyl)but-1-yn-1-yl)pyridin-2-yl)-2-(3,5-difluorophenyl)ethyl)-2-((3bS,4aR)-5,5-difluoro-3-(trifluoromethyl)-3b,4,4a,5-tetrahydro-1H-cyclopropa[3,4]cyclopenta[1,2-c]pyrazol-1-yl)acetamide]
- Tmax [1]: 18.7 ± 4.04 days
- AUC(0-t) (50 mg/mL solution (w/w %: 30.07 water, 64.40 PEG 300, 4.68 sodium salt of Formula (Ia), 0.85 poloxamer 188), mean ± SD, n=3, read-out: AUC0-7d): 156 ± 48 µM·h
- concentration at 28 d (50 mg/mL solution (w/w %: 30.07 water, 64.40 PEG 300, 4.68 sodium salt of Formula (Ia), 0.85 poloxamer 188), mean ± SD, n=3): 0.082 ± 0.035 µM
- concentration at 28 d (75 mg/mL solution (w/w %: 29.21 water, 62.55 PEG 300, 6.97 sodium salt of Formula (Ia), 1.68 poloxamer 188), mean ± SD, n=3): 0.0325 ± 0.0185 µM
- AUC(0-t) (100 mg/mL solution (w/w %: 28.36 water, 60.73 PEG 300, 9.23 sodium salt of Formula (Ia), 1.68 poloxamer 188), mean ± SD, n=3, read-out: AUC0-7d): 202 ± 27 µM·h
- concentration at 28 d (100 mg/mL solution (w/w %: 28.36 water, 60.73 PEG 300, 9.23 sodium salt of Formula (Ia), 1.68 poloxamer 188), mean ± SD, n=3): 0.415 ± 0.098 µM
- concentration at 28 d (125 mg/mL solution (w/w %: 27.51 water, 58.92 PEG 300, 11.48 sodium salt of Formula (Ia), 2.09 poloxamer 188), mean ± SD, n=3): 0.0279 ± 0.0262 µM
- concentration at 84 d (150 mg/mL solution (w/w %: 26.6 water, 56.97 PEG 300, 13.39 Formula (Ia), 0.57 NaOH, 2.49 poloxamer 188), mean ± SD, n=3): 0.0533 ± 0.0457 µM
- Cmax [1]: 0.809 ± 0.021 µM
- concentration at 98 d [1]: 0.037 ± 0.0107 µM
- Cmax (300 mg/mL solution (w/w %: 9.8 water, 65.0 PEG 300, 25.2 Formula (Ia)), mean ± SD, n=3): 0.318 ± 0.146 µM
- concentration at 168 d (300 mg/mL solution (w/w %: 9.8 water, 65.0 PEG 300, 25.2 Formula (Ia)), mean ± SD, n=3, read-out: Cd168): 0.0784 ± 0.0138 µM
- Cmax [2]: 0.915 ± 0.248 µM
- concentration at 98 d [2]: 0.0513 ± 0.0365 µM
- Cmax (300 mg/mL solution (w/w %: 23.2 water, 50.0 PEG 300, 25.7 Formula (Ia), 1.1 NaOH), mean ± SD, n=3): 0.355 ± 0.036 µM
- concentration at 168 d (300 mg/mL solution (w/w %: 23.2 water, 50.0 PEG 300, 25.7 Formula (Ia), 1.1 NaOH), mean ± SD, n=3, read-out: C168d): 0.0128 ± 0.0035 µM
- AUC(0-t) (400 mg/mL solution in 10% ethanol, 13% water, 77% PEG 200, mean ± SD, n=3, read-out: AUC0-140d): 569 ± 157 µM·h
- concentration at 84 d [3]: 0.162 ± 0.03 µM
- Cmax [3]: 0.283 ± 0.119 µM
- concentration at 1 h (rat #1): 0.0089 µM
- concentration at 3 h (rat #1): 0.027 µM
- concentration at 8 h (rat #1): 0.037 µM
- concentration at 24 h (rat #1): 0.0526 µM
- concentration at 48 h (rat #1): 0.0698 µM
- concentration at 72 h (rat #1): 0.0656 µM
- concentration at 96 h (rat #1): 0.0655 µM
- concentration at 168 h (rat #1): 0.143 µM
- concentration at 336 h (rat #1): 0.258 µM
- concentration at 504 h (rat #1): 0.327 µM
- concentration at 672 h (rat #1): 0.333 µM
- concentration at 840 h (rat #1): 0.322 µM
- concentration at 1008 h (rat #1): 0.3 µM
- concentration at 1344 h (rat #1): 0.251 µM
- concentration at 1680 h (rat #1): 0.202 µM
- concentration at 1 h (rat #2): 0.0114 µM
- concentration at 3 h (rat #2): 0.0173 µM
- concentration at 8 h (rat #2): 0.0328 µM
- concentration at 24 h (rat #2): 0.0492 µM
- concentration at 48 h (rat #2): 0.0711 µM
- concentration at 72 h (rat #2): 0.0669 µM
- concentration at 96 h (rat #2): 0.0768 µM
- concentration at 168 h (rat #2): 0.132 µM
- concentration at 336 h (rat #2): 0.273 µM
- concentration at 504 h (rat #2): 0.267 µM
- concentration at 672 h (rat #2): 0.299 µM
- concentration at 840 h (rat #2): 0.316 µM
- concentration at 1008 h (rat #2): 0.258 µM
- concentration at 1344 h (rat #2): 0.229 µM
- concentration at 1680 h (rat #2): 0.166 µM
- concentration at 1 h (rat #3): 0.0056 µM
- concentration at 3 h (rat #3): 0.0201 µM
- concentration at 8 h (rat #3): 0.0268 µM
- concentration at 24 h (rat #3): 0.0428 µM
- concentration at 48 h (rat #3): 0.0708 µM
- concentration at 72 h (rat #3): 0.0701 µM
